# Data from US7803903B2, “Protein-binding doxorubicin peptide derivatives” (priority 2003, dated 2010).
# System: A375 melanoma xenografts
# Assay: tumor growth of subcutaneously growing A375 melanoma xenografts
# Format: in vivo, nacked mice
# Details: i.v.; doxorubicin 2×8 mg/kg on days 8 and 15; FIG. 5
# Experimental: Animals: nacked mice; stock solution of doxorubicin (2 mg/ml); stock solution of 1:6 mg/ml in 10 mM sodium phosphate, 5% D-glucose (pH 6.4), control (buffer): glucose phosphate buffer (10 mM sodium phosphate, 5% D-glucose—pH 6.4) on days 8 and 15.
smiles,measurement,value
"COc1cccc2c1C(=O)c1c(O)c3c(c(O)c1C2=O)C[C@@](O)(C(=O)CO)C[C@@H]3O[C@H]1C[C@H](N)[C@H](O)[C@H](C)O1 [Doxorubicin, doxorubicin]",relative tumor volume compared to treatment with the derivative according to the invention,approximately three times larger tumor volume
